Test results: the supplement of paper PMC6045584
± gives the standard deviation of the averaged measurements.

Tests used:
[1] = compound: T1, C=CC(=O)Nc1cc2c(Nc3ccc(F)c(Cl)c3)ncnc2cc1OCCCN1CCOCC1 [CANERTINIB]; test: area under dose-response curve of surviving fraction (unscaled, Aref=0) (surviving fraction x log10(nM)); higher = more resistant; conditions: exposure time: 5 days; dose range 0.5-1000 nM
Procedure, shortened: (§1)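 Three screens per tumour cell line were run in 384-well plates at eight inhibitor concentrations from 0.5 to 1000 nM over five days. Surviving fractions, from CellTiter-Glo luminescence normalised to DMSO-only wells, were fitted with 3-parameter logistic curves in the drc R package. The reported area under the curve is the unscaled activity area. It spans log10 dose, and Aref is 0.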

[2] = compound: Cn1cc(C2=Nc3cc(NC(=O)C(N)C4CCCCC4)cc4c3C2=CNNC4=O)cn1; test: as above; conditions: exposure time: 5 days; dose range 0.5-1000 nM
Procedure, shortened: as §1

[3] = compound: T2, CC[C@@H]1C(=O)N(C)c2cnc(Nc3ccc(C(=O)NC4CCN(C)CC4)cc3OC)nc2N1C1CCCC1 [BI-2536]; test: as above; conditions: exposure time: 5 days; dose range 0.5-1000 nM
Procedure, shortened: as §1

[4] = compound: T3, CC1(C)CC(=O)c2c(C(F)(F)F)nn(-c3ccc(C(N)=O)c(N[C@H]4CC[C@H](OC(=O)CN)CC4)c3)c2C1 [SNX-5422]; test: as above; conditions: exposure time: 5 days; dose range 0.5-1000 nM
Procedure, shortened: as §1

[5] = compound: T4, CN(C)C/C=C/C(=O)Nc1cc2c(Nc3ccc(F)c(Cl)c3)ncnc2cc1O[C@H]1CCOC1 [AFATINIB]; test: as above; conditions: exposure time: 5 days; dose range 0.5-1000 nM
Procedure, shortened: as §1

[6] = compound: T5, CCCCCCCCCCCCCCCC(=O)Nc1ccn([C@@H]2O[C@H](CO)[C@@H](O)[C@@H]2C#N)c(=O)n1 [SAPACITABINE]; test: as above; conditions: exposure time: 5 days; dose range 0.5-1000 nM
Procedure, shortened: as §1

[7] = compound: T6, CNC(=O)c1ccc(N2C(=S)N(c3ccc(C#N)c(C(F)(F)F)c3)C(=O)C2(C)C)cc1F [MDV3100]; test: as above; conditions: exposure time: 5 days; dose range 0.5-1000 nM
Procedure, shortened: as §1

[8] = compound: T7, Nc1nc2[nH]cnc2c(=S)[nH]1 [TIOGUANINE]; test: as above; conditions: exposure time: 5 days; dose range 0.5-1000 nM
Procedure, shortened: as §1

[9] = compound: T1, CANERTINIB; test: surviving fraction relative to DMSO-only wells; higher = less growth inhibition; conditions: exposure time: 5 days
Procedure, shortened: (§2)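 A line counted only if its three screens reached replicate Pearson r >0.7 and median Z' >0.3. Tumour cells in log phase were seeded at 250–500 per well in 384-well plates and, after 24 hours, kept in continuous contact with inhibitors at 0.5, 1, 5, 10, 50, 100, 500 and 1000 nM for five days. Surviving fraction was taken from CellTiter-Glo luminescence relative to the median of DMSO-only wells.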

[10] = compound: Cn1cc(C2=Nc3cc(NC(=O)C(N)C4CCCCC4)cc4c3C2=CNNC4=O)cn1; test: as above; conditions: exposure time: 5 days
Procedure, shortened: as §2

[11] = compound: T2, BI-2536; test: as above; conditions: exposure time: 5 days
Procedure, shortened: as §2

[12] = compound: T3, SNX-5422; test: as above; conditions: exposure time: 5 days
Procedure, shortened: as §2

[13] = compound: T4, AFATINIB; test: as above; conditions: exposure time: 5 days
Procedure, shortened: as §2

[14] = compound: T5, SAPACITABINE; test: as above; conditions: exposure time: 5 days
Procedure, shortened: as §2

[15] = compound: T6, MDV3100; test: as above; conditions: exposure time: 5 days
Procedure, shortened: as §2

[16] = compound: T7, TIOGUANINE; test: as above; conditions: exposure time: 5 days
Procedure, shortened: as §2

In the case of U2OS BONE, the “area under dose-response curve” value [1] is reported as 3.13, the “area under dose-response curve” value [2] is reported as 2.85 and the “area under dose-response curve” value [3] is reported as 1.57. For the same test system, the “area under dose-response curve” value [4] was 2.17, the “area under dose-response curve” value [5] was 3.19 and the “area under dose-response curve” value [6] was 2.92. The “area under dose-response curve” value [7] was 3.37, the “area under dose-response curve” value [8] was 3.25 and the surviving fraction ([9]; 0.5 nM) was 0.951 ± 0.022. For the same test system, the surviving fraction ([9]; 1 nM) was 0.95 ± 0.041, the surviving fraction ([9]; 5 nM) was 0.942 ± 0.025 and the surviving fraction ([9]; 10 nM) was 0.962 ± 0.047. It also gave a surviving fraction ([9]; 50 nM) of 0.991 ± 0.0096, a surviving fraction ([9]; 100 nM) of 0.991 ± 0.029 and a surviving fraction ([9]; 500 nM) of 0.877 ± 0.017. For the same test system, the surviving fraction ([9]; 1000 nM) was 0.889 ± 0.059, the surviving fraction ([10]; 0.5 nM) was 1.06 ± 0.016 and the surviving fraction ([10]; 1 nM) was 1.08 ± 0.029. For the same test system, the surviving fraction ([10]; 5 nM) was 1.1 ± 0.045, the surviving fraction ([10]; 10 nM) was 1.08 ± 0.04 and the surviving fraction ([10]; 50 nM) was 1.04 ± 0.029. The surviving fraction ([10]; 100 nM) was 0.999 ± 0.029, the surviving fraction ([10]; 500 nM) was 0.201 ± 0.017 and the surviving fraction ([10]; 1000 nM) was 0.0873 ± 0.0068. For the same test system, the surviving fraction ([11]; 0.5 nM) was 1.04 ± 0.027, the surviving fraction ([11]; 1 nM) was 1.05 ± 0.063 and the surviving fraction ([11]; 5 nM) was 0.902 ± 0.023. The surviving fraction ([11]; 10 nM) was 0.302 ± 0.023, the surviving fraction ([11]; 50 nM) was 0.215 ± 0.0062 and the surviving fraction ([11]; 100 nM) was 0.199 ± 0.01. The surviving fraction ([11]; 500 nM) was 0.188 ± 0.0087, the surviving fraction ([11]; 1000 nM) was 0.171 ± 0.013 and the surviving fraction ([12]; 0.5 nM) was 1.04 ± 0.019. For the same test system, the surviving fraction ([12]; 1 nM) was 1.06 ± 0.04, the surviving fraction ([12]; 5 nM) was 1.08 ± 0.015 and the surviving fraction ([12]; 10 nM) was 1.06 ± 0.041. The surviving fraction ([12]; 50 nM) was 0.644 ± 0.018, the surviving fraction ([12]; 100 nM) was 0.257 ± 0.021 and the surviving fraction ([12]; 500 nM) was 0.066 ± 0.0035. The surviving fraction ([12]; 1000 nM) was 0.0757 ± 0.0023, the surviving fraction ([13]; 0.5 nM) was 1.075 ± 0.001 and the surviving fraction ([13]; 1 nM) was 1.05 ± 0.044. The surviving fraction ([13]; 5 nM) was 1.06 ± 0.013, the surviving fraction ([13]; 10 nM) was 1.02 ± 0.024 and the surviving fraction ([13]; 50 nM) was 1.05 ± 0.0055. The surviving fraction ([13]; 100 nM) was 1.04 ± 0.056, the surviving fraction ([13]; 500 nM) was 0.838 ± 0.021 and the surviving fraction ([13]; 1000 nM) was 0.646 ± 0.0085. The surviving fraction ([14]; 0.5 nM) was 0.921 ± 0.066, the surviving fraction ([14]; 1 nM) was 0.938 ± 0.06 and the surviving fraction ([14]; 5 nM) was 0.946 ± 0.035. It also gave a surviving fraction ([14]; 10 nM) of 0.936 ± 0.067, a surviving fraction ([14]; 50 nM) of 0.939 ± 0.016 and a surviving fraction ([14]; 100 nM) of 0.83 ± 0.036. The surviving fraction ([14]; 500 nM) was 0.729 ± 0.019, the surviving fraction ([14]; 1000 nM) was 0.66 ± 0.032 and the surviving fraction ([15]; 0.5 nM) was 1.003 ± 0.0095. It also gave a surviving fraction ([15]; 1 nM) of 1.02 ± 0.022, a surviving fraction ([15]; 5 nM) of 1.01 ± 0.027 and a surviving fraction ([15]; 10 nM) of 1.01 ± 0.018. The surviving fraction ([15]; 50 nM) was 1.04 ± 0.026, the surviving fraction ([15]; 100 nM) was 1.03 ± 0.018 and the surviving fraction ([15]; 500 nM) was 1.06 ± 0.033. For the same test system, the surviving fraction ([15]; 1000 nM) was 0.999 ± 0.047, the surviving fraction ([16]; 0.5 nM) was 1.03 ± 0.058 and the surviving fraction ([16]; 1 nM) was 1.06 ± 0.043. The surviving fraction ([16]; 5 nM) was 1.077 ± 0.007, the surviving fraction ([16]; 10 nM) was 1.04 ± 0.018 and the surviving fraction ([16]; 50 nM) was 1.08 ± 0.05. For the same test system, the surviving fraction ([16]; 100 nM) was 1.06 ± 0.048, the surviving fraction ([16]; 500 nM) was 0.939 ± 0.014 and the surviving fraction ([16]; 1000 nM) was 0.732 ± 0.042.
